Like-named read-outs stand apart in the source and are kept apart here.
Experiments:
RAW264.7 cells [1] = experiment: Cell viability (XTT assay); type: cell-based
Method: Cell Viability. Viability of RAW264.7 cells were performed using Cell Proliferation Kit II (XTT) (Roche Applied Science, Mannheim, Germany, Cat. No. 11465015001) using the manufacturer's instructions. […] Post 24 hours exposure to CFZ, the cells were incubated with the yellow XTT solution (final concentration 0.3 mg/ml) for 4 h. […] An increase in number of living cells directly correlates to the amount of orange formazan formed, as monitored by the solution absorbance at 500 nm (Abs500). The following formula was used to determine viability of drug and inhibitor treated cells using untreated cells (blank) as a control—Cell Viability=(Abs500, treated—Abs700,treated)/(Abs500, blank—Abs700,blank).

RAW264.7 cells [2] = system: RAW264.7 cells
Method: Drug Uptake. Measurement of CFZ uptake in RAW264.7 cells was performed using a modified absorbance spectroscopy method using 9 M H2SO4 (pH<<0.1) to digest the entire cell population and extract CFZ from the cells. Cells at a very high seeding density of 50,000 cells/well, grown in a 96 well tissue culture plate in 280 μl/well of DMEM +10% FBS +1% P/S (growth media), were pre-incubated with varying concentrations of BafA1 (0-4 nM) and NPPB (0-200 μM) for 4 hours before adding CFZ dissolved in DMSO such that final concentrations of CFZ were in the range of 0-8 μM. Post 4 and 24 hours exposure to CFZ, growth media was aspirated out and the cells were washed with PBS twice before adding 100 μl/well of 9 M H2SO4 and incubated at room temperature for 30 minutes before spectrophotometric quantification using a Synergy 2 plate reader (BioTek, Winooski, Vt.) at 540 nm (Abs540) and 750 nm (Abs750) (for background). Standards were prepared on the same plate by adding 100 μl/well pre-determined standards of CFZ. Total uptake was reported as total picomoles of intracellular drug as measured and calculated using the standard curve.
Cell Viability Measurement: Comparing Wet Lab Experimental Study with Simulation Study. In order to compare wet lab experimental cell viability determination with that of model simulation, the rate at which drug accumulation occurred in the experimental study was calculated. […] Then, cell viability was calculated using the following equation: […]
In vitro analysis (CFZ accumulation). […] Furthermore, the following comparisons are reported as a percentage (%) of CFZ accumulation measured in uninhibited cells under the various tested CFZ concentrations and 8 μM CFZ concentration, in the wet lab experimental and simulation studies, respectively.

[3] = Mouse body weight and temperature during macrophage depletion and CFZ feeding; type: in vivo; settings: mice, final measurement; four weeks diet, two weeks liposomes
Method: Mice (4 week old, male C57B16) were purchased from the Jackson Laboratory (Bar Harbor, Me.) and acclimatized for 1 week in a specific-pathogen-free animal facility. Clofazimine (CFZ) (C8895; Sigma, St. Louis, Mo.) was dissolved in sesame oil (Shirakiku, Japan) to achieve a concentration of 3 mg/ml, which was mixed with Powdered Lab Diet 5001 (PMI International, Inc., St. Louis, Mo.) to produce a 0.03% drug to powdered feed mix, and orally administered ad libitum for 4 weeks. A corresponding amount of sesame oil was mixed with chow for vehicle treatment (control). Mice were euthanized via carbon dioxide asphyxiation and exsanguination. Animal care was provided by the University of Michigan's Unit for Laboratory Animal Medicine (ULAM).
In order to deplete tissue macrophages, mice were treated with liposomes containing either 7 mg/mL clodronate or phosphate-buffered saline (PBS) (FormuMax Scientific Inc., Sunnyvale, Calif.) for up to six weeks. Liposomes were injected IP to eliminate macrophages of the liver, spleen, and peritoneal cavity. Mice were initially treated with 200 μL of liposomes, followed by 100 μL injections twice per week to ensure continual depletion of macrophages. […]
During the course of the experiment, the body weight and temperature of the mice were measured daily to track the impact of the loss of drug-sequestering cells on the general health of the mouse. […]

[4] = Biochemical analysis of CFZ in tissues; type: in vivo; settings: clodronate-treated mice versus PBS
Method: Mice were fed CFZ or a control diet continuously for a four week period. Following two weeks of feeding, liposome treatment began for two weeks. After completing four weeks of feeding and two weeks of liposome treatment, the mice were sacrificed and tissues were collected.
The concentration of CFZ in organs was determined spectrophotometrically. After four weeks of CFZ- or vehicle-diet treatment, mice were euthanized via CO2 asphyxiation, and blood and organs were collected. Tissue (20-30 mg) was homogenized in 500 μL of RIPA buffer, and 350 μL of homogenate was removed drug was extracted with three passes of 1 mL of xylenes. The drug was then extracted from the xylene with three 1 mL passes of 9M sulfuric acid. The concentration of CFZ present in the tissue was then determined using a plate reader at wavelength 450 nm.

[5] = cited from earlier work

SMILES: CC(C)N=c1cc2n(-c3ccc(Cl)cc3)c3ccccc3nc-2cc1Nc1ccc(Cl)cc1 [CFZ, 3-(p-chloroanilino)-10-(p-chlorophenyl)-2, 10-dihydro-2-isopropyliminophenazine]
- cell viability (RAW264.7 cells [1]; BafA1=4 nM and CFZ=10 μM, n=6): 76±13%
- cell viability (RAW264.7 cells [1]; BafA1=6 nM, all concentrations of CFZ): 48-85%
- cell viability (RAW264.7 cells [1]; BafA1=8 nM, all concentrations of CFZ): 33-77%
- cell viability (RAW264.7 cells [1]; exposed to NPPB (all tested concentrations) prior to varying concentrations of CFZ): > 92%
- effect on cell viability (RAW264.7 cells [1]; incubation of the substance alone, RAW264.7, XTT): no significant effect
- cell viability (RAW264.7 cells [1]; up to 4 nM BafA1 prior to up to 8 μM CFZ): > 91%
- CFZ accumulation relative to uninhibited cells (RAW264.7 cells [2]; 2 nM BafA1, initial CFZ=4 μM, 4 hours): 80±13%
- CFZ accumulation relative to uninhibited cells (RAW264.7 cells [2]; 2 nM BafA1, initial CFZ=4 μM, 24 hours): 67±12%
- CFZ accumulation relative to uninhibited cells (RAW264.7 cells [2]; 2 nM BafA1, initial CFZ=6 μM, 4 hours): 75±11%
- CFZ accumulation relative to uninhibited cells (RAW264.7 cells [2]; 2 nM BafA1, initial CFZ=6 μM, 24 hours): 71±19%
- CFZ accumulation relative to uninhibited cells (RAW264.7 cells [2]; 2 nM BafA1, initial CFZ=8 μM, 4 hours): 63±9%
- CFZ accumulation relative to uninhibited cells (RAW264.7 cells [2]; 2 nM BafA1, initial CFZ=8 μM, 24 hours): 67±12%
- CFZ accumulation relative to uninhibited cells (RAW264.7 cells [2]; BafA1=4 nM, initial CFZ=4 μM, 4 hours): 29±4%
- CFZ accumulation relative to uninhibited cells (RAW264.7 cells [2]; BafA1=4 nM, initial CFZ=4 μM, 24 hours): 42±6%
- CFZ accumulation relative to uninhibited cells (RAW264.7 cells [2]; BafA1=4 nM, initial CFZ=6 μM, 4 hours): 47±9%
- CFZ accumulation relative to uninhibited cells (RAW264.7 cells [2]; BafA1=4 nM, initial CFZ=6 μM, 24 hours): 38±9%
- CFZ accumulation relative to uninhibited cells (RAW264.7 cells [2]; BafA1=4 nM, initial CFZ=8 μM, 4 hours): 43±8%
- CFZ accumulation relative to uninhibited cells (RAW264.7 cells [2]; BafA1=4 nM, initial CFZ=8 μM, 24 hours): 26±4%
- CFZ accumulation relative to uninhibited cells (RAW264.7 cells [2]; NPPB=50 μM, CFZ=4 μM, 24 hours): 73±10%
- CFZ accumulation relative to uninhibited cells (RAW264.7 cells [2]; NPPB=50 μM, CFZ=6 μM, 24 hours): 73±17%
- CFZ accumulation relative to uninhibited cells (RAW264.7 cells [2]; NPPB=50 μM, CFZ=8 μM, 24 hours): 72±10%
- CFZ accumulation relative to uninhibited cells (RAW264.7 cells [2]; NPPB=100 μM, CFZ=4 μM, 24 hours): 46±5%
- CFZ accumulation relative to uninhibited cells (RAW264.7 cells [2]; NPPB=100 μM, CFZ=6 μM, 24 hours): 41±12%
- CFZ accumulation relative to uninhibited cells (RAW264.7 cells [2]; NPPB=100 μM, CFZ=8 μM, 24 hours): 41±7%
- CFZ accumulation relative to uninhibited cells (RAW264.7 cells [2]; NPPB=200 μM, CFZ=4 μM, 24 hours): 30±7%
- CFZ accumulation relative to uninhibited cells (RAW264.7 cells [2]; NPPB=200 μM, CFZ=6 μM, 24 hours): 32±12%
- CFZ accumulation relative to uninhibited cells (RAW264.7 cells [2]; NPPB=200 μM, CFZ=8 μM, 24 hours): 37±7%
- rate of drug accumulation (RAW264.7 cells [2]; mouse, 8 µM): ~0.01 picomol/cell/day
- change in CFZ accumulation in inhibited relative to uninhibited cells (RAW264.7 cells [2]; pre-incubated with various concentrations of NPPB, CFZ for 4 hours at varying concentrations): no significant change
- Average Body Temperature (n = 3-4) [3]: 34.3 ± 0.3 °C
- Average Body Weight (n = 3-4) [3]: 25.7 ± 0.8 g
- reduction in the total amount of drug found in the liver [4]: 75±7%
- reduction in the total amount of drug found in the spleen [4]: 88±7%
- difference in total amount of drug found in the kidney ([4]; p=0.77): no difference
- pharmacologically-relevant concentrations measured in serum [5]: 1 to 20 μM
